From ChEMBL document CHEMBL1137403, “Discovery of 2-[4-{{2-(2S,5R)-2-cyano-5-ethynyl-1-pyrrolidinyl]-2-oxoethyl]amino]- 4-methyl-1-piperidinyl]-4-pyridinecarboxylic acid (ABT-279): a very potent, selective, effective, and well-tolerated inhibitor of dipeptidyl peptidase-IV, useful for the treatment of diabetes” (J Med Chem, 2006)
pKi: −log10 of the molar value.

Assays:
Dipeptidyl peptidase 9 = Dipeptidyl peptidase 9 (Homo sapiens, UniProt Q86TI2)
Dipeptidyl peptidase 2 = Dipeptidyl peptidase 2 (Homo sapiens, UniProt Q9UHL4); assay: Inhibition of DPP7
Prolyl endopeptidase FAP = molecular target: T1, Prolyl endopeptidase FAP (Homo sapiens, UniProt Q12884); assay: Inhibition of FAPalpha
T1 sequence (Q12884 whole entry): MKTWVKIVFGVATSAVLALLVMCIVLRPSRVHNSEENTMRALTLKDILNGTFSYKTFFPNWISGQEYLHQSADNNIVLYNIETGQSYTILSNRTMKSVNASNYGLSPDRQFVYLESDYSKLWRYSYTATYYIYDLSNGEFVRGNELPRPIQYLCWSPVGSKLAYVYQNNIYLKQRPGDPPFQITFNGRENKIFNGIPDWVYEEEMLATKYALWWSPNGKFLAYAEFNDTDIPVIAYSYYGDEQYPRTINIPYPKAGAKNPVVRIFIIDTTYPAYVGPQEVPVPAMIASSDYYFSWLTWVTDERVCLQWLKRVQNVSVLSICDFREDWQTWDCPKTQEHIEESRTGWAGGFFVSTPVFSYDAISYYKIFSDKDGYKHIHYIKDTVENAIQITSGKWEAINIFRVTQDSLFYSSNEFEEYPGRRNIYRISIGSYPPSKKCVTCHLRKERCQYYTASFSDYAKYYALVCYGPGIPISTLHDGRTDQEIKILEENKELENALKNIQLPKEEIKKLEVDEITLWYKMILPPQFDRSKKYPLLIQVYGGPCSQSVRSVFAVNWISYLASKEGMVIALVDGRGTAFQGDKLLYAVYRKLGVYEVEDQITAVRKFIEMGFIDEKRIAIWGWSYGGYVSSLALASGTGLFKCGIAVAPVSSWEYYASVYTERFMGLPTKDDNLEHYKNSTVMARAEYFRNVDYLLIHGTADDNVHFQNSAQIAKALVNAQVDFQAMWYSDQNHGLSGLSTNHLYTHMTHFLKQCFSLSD

Dipeptidyl peptidase 8 = Dipeptidyl peptidase 8 (Homo sapiens, UniProt Q6V1X1)
Chain of Dipeptidyl peptidase 8 (Q6V1X1 whole entry): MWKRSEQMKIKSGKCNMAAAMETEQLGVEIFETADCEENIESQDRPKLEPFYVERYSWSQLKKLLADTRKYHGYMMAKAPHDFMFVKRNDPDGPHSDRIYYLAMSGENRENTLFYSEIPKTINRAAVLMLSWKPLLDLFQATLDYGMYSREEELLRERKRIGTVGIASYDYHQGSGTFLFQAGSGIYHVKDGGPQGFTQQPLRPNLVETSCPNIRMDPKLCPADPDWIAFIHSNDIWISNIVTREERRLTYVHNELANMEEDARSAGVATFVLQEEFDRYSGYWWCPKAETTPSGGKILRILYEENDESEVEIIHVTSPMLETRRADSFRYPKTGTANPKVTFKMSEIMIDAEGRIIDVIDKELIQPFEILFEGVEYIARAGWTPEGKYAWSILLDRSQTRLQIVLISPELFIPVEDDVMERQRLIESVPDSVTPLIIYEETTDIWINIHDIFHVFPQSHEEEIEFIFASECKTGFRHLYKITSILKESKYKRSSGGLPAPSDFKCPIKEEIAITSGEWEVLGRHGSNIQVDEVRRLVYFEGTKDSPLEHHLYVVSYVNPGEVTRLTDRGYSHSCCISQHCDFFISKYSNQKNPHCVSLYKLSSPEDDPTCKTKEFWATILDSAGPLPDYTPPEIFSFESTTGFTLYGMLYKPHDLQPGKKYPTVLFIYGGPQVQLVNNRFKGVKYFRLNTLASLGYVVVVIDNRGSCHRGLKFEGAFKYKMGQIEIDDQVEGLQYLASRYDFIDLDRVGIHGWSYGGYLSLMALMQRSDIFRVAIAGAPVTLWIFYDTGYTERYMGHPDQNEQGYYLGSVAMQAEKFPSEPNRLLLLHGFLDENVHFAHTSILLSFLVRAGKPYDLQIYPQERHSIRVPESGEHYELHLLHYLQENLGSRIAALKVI

Prolyl endopeptidase = molecular target: T2, Prolyl endopeptidase (Homo sapiens, UniProt P48147); assay: Inhibition of POP
T2 sequence (P48147 whole entry): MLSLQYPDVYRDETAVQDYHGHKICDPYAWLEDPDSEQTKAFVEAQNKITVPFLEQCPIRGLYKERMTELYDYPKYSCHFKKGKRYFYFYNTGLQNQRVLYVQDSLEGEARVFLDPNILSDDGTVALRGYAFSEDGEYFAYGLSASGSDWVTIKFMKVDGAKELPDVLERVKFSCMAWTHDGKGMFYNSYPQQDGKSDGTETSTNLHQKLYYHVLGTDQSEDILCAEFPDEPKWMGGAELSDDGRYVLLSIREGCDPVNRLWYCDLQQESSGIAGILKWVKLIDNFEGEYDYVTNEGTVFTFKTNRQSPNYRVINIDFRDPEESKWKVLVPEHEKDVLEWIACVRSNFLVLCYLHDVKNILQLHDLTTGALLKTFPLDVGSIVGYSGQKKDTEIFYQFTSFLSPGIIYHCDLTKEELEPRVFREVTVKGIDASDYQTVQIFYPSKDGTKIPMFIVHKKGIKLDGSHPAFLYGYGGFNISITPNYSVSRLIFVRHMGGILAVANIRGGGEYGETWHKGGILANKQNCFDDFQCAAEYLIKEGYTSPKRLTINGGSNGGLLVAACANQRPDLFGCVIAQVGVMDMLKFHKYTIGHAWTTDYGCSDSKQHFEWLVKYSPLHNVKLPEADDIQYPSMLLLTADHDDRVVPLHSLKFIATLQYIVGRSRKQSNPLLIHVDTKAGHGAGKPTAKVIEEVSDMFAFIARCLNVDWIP

Chain of Dipeptidyl peptidase 9 (Q86TI2 whole entry): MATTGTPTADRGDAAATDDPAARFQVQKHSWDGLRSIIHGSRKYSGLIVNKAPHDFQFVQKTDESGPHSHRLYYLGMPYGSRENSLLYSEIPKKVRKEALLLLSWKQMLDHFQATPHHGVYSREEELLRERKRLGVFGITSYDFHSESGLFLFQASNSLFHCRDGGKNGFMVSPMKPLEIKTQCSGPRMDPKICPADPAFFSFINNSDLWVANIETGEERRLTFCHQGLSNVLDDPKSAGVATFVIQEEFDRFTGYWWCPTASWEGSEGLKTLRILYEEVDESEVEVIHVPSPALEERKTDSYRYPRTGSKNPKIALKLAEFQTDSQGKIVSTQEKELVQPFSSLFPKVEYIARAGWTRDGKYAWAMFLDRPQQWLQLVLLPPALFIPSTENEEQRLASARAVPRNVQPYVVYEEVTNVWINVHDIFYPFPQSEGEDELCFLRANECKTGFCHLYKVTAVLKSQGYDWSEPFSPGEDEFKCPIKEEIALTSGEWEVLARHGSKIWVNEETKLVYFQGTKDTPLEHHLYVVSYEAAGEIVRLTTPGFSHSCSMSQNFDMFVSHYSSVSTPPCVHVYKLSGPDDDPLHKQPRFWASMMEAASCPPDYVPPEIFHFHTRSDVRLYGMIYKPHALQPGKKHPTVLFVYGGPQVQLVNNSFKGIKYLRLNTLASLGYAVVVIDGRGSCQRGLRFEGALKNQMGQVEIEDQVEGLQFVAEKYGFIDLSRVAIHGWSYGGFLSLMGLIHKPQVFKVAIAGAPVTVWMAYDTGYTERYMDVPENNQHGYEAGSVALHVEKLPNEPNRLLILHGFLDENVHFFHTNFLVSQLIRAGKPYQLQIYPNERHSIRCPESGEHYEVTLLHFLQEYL

SMILES	pKi (Dipeptidyl peptidase 9)	pKi (Dipeptidyl peptidase 2)	pKi (Prolyl endopeptidase FAP)	pKi (Dipeptidyl peptidase 8)	pKi (Prolyl endopeptidase)
C#C[C@H]1CC[C@@H](C#N)N1C(=O)[C@@H](N)C1CCCC1	< 4.52	–	–	–	–
C#C[C@H]1CC[C@@H](C#N)N1C(=O)CNC1(C)CCN(c2ccc(C(=O)O)cn2)CC1	< 4.52	< 4.52	< 4.52	< 4.52	< 4.52
C#C[C@H]1CC[C@@H](C#N)N1C(=O)CNC1CCCC1	< 4.52	–	–	< 4.52	–
C#C[C@H]1CC[C@@H](C#N)N1C(=O)CNC(C)(C)C	< 4.52	–	–	< 4.52	–
